As a reminder, the MIC is the smallest concentration in the dilution series that meets the test's criterion for growth inhibition.

Consider three molecules from patent US5925667A, “Pyrrolidine derivative, anti-ulcer drug, and antibacterial drug” (Shiseido Co., Ltd., priority 1997, dated 1999).

In one data set the test system is Slc:ICR mice. Also noted: species or system male Slc:ICR mice. The conditions noted are these: mouse, in vivo. How it is done:
AT: Single Dose Toxicity Pretest
Male Slc:ICR mice (5-week-old) were used. Each group has 3 to 5 mice and each mouse was fasted, but allowed free access to water, for 4 to 5 hours from 9 a.m. in the test day. Then, 2,000 mg/10 ml/kg of the sample compound dissolved or suspended in an aqueous solution of 0.5% sodium carboxymethyl cellulose was orally administered thereto. To a control, only the vehicle was administered. […] The body weight was measured before and after the fasting as well as at the same time everyday. The dead animals were immediately subjected to autopsy and their organs were observed by naked eyes. Also, the living animals were sacrificed with ether or carbon dioxide one week after the administration and then their organs were observed by naked eyes.
The toxicity at the single dose of 2,000 mg/kg of the sample compound was expressed as being classified into 5 levels.
5: Mortality rate is 0%; no toxicity is found at all both in behavior and organs.
4: Mortality rate is 0%; while no toxicity is found in organs, slight toxicity is observed in behavior or body weight increase.
3: While there is a dead animal (though not all the animals are dead), no toxicity is found in organs.
2: Regardless of whether there is a dead animal or not, toxicity is found in organs.
1: All the animals are dead.

The test system of data set [1] is isolated gastric fundic gland. In words: CAP: Acid Secretion Inhibition Test In Vitro ([14C]-aminopyrine uptake test). The data set is classed as cell-based, male Japanese White rabbit. The conditions noted are these: Oryctolagus cuniculus; final concentration 10^-5 M, histamine 10^-5 M; read-out: acid secretion inhibitory rate (CAP). Here is the method:
CAP: Acid Secretion Inhibition Test In Vitro
The acid secretion inhibitory activity in a cell level is studied. It can also be used for studying the mechanism of the effect.
ii-a) Preparation of isolated gastric fundus gland suspension
First, an isolated gastric fundic gland sample was prepared. Namely, a male Japanese White rabbit (2.5 to 3 kg) was anesthetized to death with Nembutal™ and then the abdomen was incised. Immediately thereafter, the stomach was removed and, after its pyloric and cardiac antrum were severed, incised along its greater curvature into two sheets. The gastric contents adhering to the mucosal surface was washed out with ice-cooled PBS (-) and then carefully washed therein. The gastric wall was spread on a cork board with its mucosal surface facing up and the feed and mucus thereon were completely removed with sterile gauze. The mucosa was separated therefrom by a spatula and then collected in ice-cooled PBS (-). After being washed twice with PBS (-), the mucosa was minced into 2-3 mm^3 pieces by scissors. These pieces were further washed twice with a nutrient solution. The nutrient solution comprises 132.4 mM of NaCl, 5.4 mM of KCl, 5 mM of Na2 HPO4.12H2 O, 1 mM of NaH2 PO4.2H2,
1.2 mM of MgSO4, 1 mM of CaCl2, 25 mM of HEPES, 2 mg/ml of glucose, and 1 mg/ml of BSA.
Into 70 ml of the nutrient solution containing 1 mg/ml of collagenase, minced mucosal pieces were dispersed and intensely stirred in a conical flask with a stirrer at 37° C. for 40 to 60 minutes. During this period, 100% O2 was sprayed on the nutrient solution surface and the pH was appropriately measured such that it was immediately adjusted to pH 7.4, when the value was therebelow, with a base. The nutrient solution was added to the reaction solution so as to attain the total amount of about 200 ml. After being filtered through a mesh, the suspension was divisionally introduced into 50 ml centrifuge tubes and left for 15 minutes such that gastric fundic gland was deposited. The supernatant was repeatedly removed by an aspirator, dispersed in the nutrient solution, and then left such that the gastric fundic gland was washed three times. At this time, without using a pipette, the suspension was alternately introduced into two centrifuge tubes so as to effect dispersion. The number of cells was counted under microscope and adjusted to 1.6×10^6 cells/ml.
ii-b) [^14 C]-aminopyrine uptake test.
Then, [^14 C]-aminopyrine uptake test was performed. After an Eppendorf tube was weighed, 10 μl (final concentration: 10^-5 M) of histamine dissolved in the above-mentioned nutrient solution, 10 μl (final concentration: 10^-5 M) of the test compound dissolved in DMSO, and 10 μl (final concentration: 0.05 μCi/ml) of [^14 C]-aminopyrine diluted with the nutrient solution were introduced therein and then 970 μl of the isolated gastric fundic gland suspension prepared above was added thereto. Subsequently, this mixture was shaken at 37° C. for 40 minutes at 125 cycles/minute. After being centrifuged for 30 seconds, 200 μl of its supernatant was collected into a mini-vial, while the rest was removed by an aspirator. The gland pellet was completely dried as the tube with its lid being opened was kept for one night in a drying oven at 80° C. and then the lid was closed and the weight was determined at room temperature. Then 100 μl of 1N KOH was added thereto and the tube with its lid being closed was treated at 60° C. for 1 to 2 hours so as to dissolve the pellet. Then, the contents thereof were transferred to a mini-vial. Into the mini-vial containing the supernatant or gland pellet, 4 ml of Atomlite™ was added and then the radioactivity was measured by a liquid scintillation counter. Here, after the radioactivity of the gland pellet was corrected by using a sample in which 20 mM of NaSCN was added so as to cancel the hydrogen ion concentration gradient, the integration ratio of aminopyrine specifically trapped by the gland pellet was calculated. […]

The next data set relates to HP NCTC 11637. Put plainly: AHP: Antibacterial Activity Test Against Helicobacter pyroli (agar dilution MIC). The data set is classed as cell-based. The conditions noted are these: NCTC11637, 168 h, 7 days. Background: Agar dilution tests growth on a series of plates holding different concentrations.

Regarding `CCN1CCCC1CNC(=O)c1ccc(OCC=C(C)C)c(OCC=C(C)C)c1` (stereo not shown) [Example 7, 1-ethyl-2-(3,4-diprenyloxybenzoylaminomethyl)pyrrolidine], the “toxicity at single dose (AT), 5 levels” value in the data set with Slc:ICR mice is 3. In addition, the inhibition at 10 µM in data set [1] was found to be 99.7%.
Consider `CCN1CCCC1CNC(=O)c1cc(OC/C=C(\C)CCC=C(C)C)ccc1OC/C=C(\C)CCC=C(C)C` (stereo not shown) [Example 10, 1-ethyl-2-(2,5-digeranyloxybenzoylaminomethyl)pyrrolidine], for which the “toxicity at single dose (AT), 5 levels” value with Slc:ICR mice stood at 3. Also, the inhibition at 10 µM in data set [1] came to 100%. In the data set with HP NCTC 11637, this molecule registered an MIC of under 3.13 µg/mL.
With `CCN1CCCC1CNC(=O)c1cc(OCC=C(C)C)ccc1OCC=C(C)C` (stereo not shown) [Example 6, 1-ethyl-2-(2,5-diprenyloxybenzoylaminomethyl)pyrrolidine], in the data set with Slc:ICR mice, the “toxicity at single dose (AT), 5 levels” value is reported as 3. Besides, the inhibition at 10 µM in data set [1] was 100%.
